# In patent US5776742A, “Aldehyde dehydrogenase enzyme” (Roche Vitamins Inc., priority 1996, dated 1998):
# Where “and” joins values, the source holds several entries; their conditions need not be identical. Equal entries are not always repeated. Entries after “also recorded” stand apart in the source; their conditions may differ. Where two headings read alike, the source gives them in different places.
# Key:
# [1] = biological target: T1, aldehyde dehydrogenase (ADH) (Ketogulonicigenium vulgare, UniProt F9Y7W8); assay: Electron acceptor suitability for L-sorbosone oxidation; format: biochemical, Gluconobacter oxydans DSM 4025 (FERM BP-3812); conditions: oxidation of L-sorbosone to 2-keto-L-gulonic acid
# T1 sequence (F9Y7W8 1-429): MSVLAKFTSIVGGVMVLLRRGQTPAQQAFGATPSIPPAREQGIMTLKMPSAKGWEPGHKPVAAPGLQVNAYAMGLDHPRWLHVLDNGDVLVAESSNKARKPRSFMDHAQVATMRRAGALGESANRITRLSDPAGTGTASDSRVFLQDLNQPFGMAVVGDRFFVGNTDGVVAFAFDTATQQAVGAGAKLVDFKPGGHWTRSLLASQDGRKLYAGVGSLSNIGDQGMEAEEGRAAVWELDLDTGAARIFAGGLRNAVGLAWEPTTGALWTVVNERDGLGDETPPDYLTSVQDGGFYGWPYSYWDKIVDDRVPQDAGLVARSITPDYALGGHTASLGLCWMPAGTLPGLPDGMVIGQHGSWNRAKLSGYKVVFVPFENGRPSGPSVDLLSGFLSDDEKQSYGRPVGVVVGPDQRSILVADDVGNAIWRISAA
# [2] = biological target: T1, aldehyde dehydrogenase (ADH); assay: Substrate specificity of the ADH; conditions: for activity at 100000 µM: read-out: Relative activity (%)
# [3] = biological target: T1, aldehyde dehydrogenase (ADH); assay: Effects of metal ions, enzyme inhibitors and PQQ on the activity of ADH; format: biochemical, Gluconobacter oxydans DSM 4025 (FERM BP-3812); conditions: for inhibition at 1870 µM: read-out: inhibition of the activity
# [4] = read-out: Relative activity (%)
# [5] = compound 0.950 mM, None = 100, read-out: Relative activity (%)
# [6] = compound 1.870 mM, None = 100, read-out: Relative activity (%)
compound,measurement,setting,value
O=C1C(Cl)=CC(=Nc2ccc(O)cc2)C=C1Cl,suitability as electron acceptor (in words),[1],oxidizes L-sorbosone to 2-keto-L-gulonic acid in the presence of electron acceptors
"O=CC(O)CO (racemic) [D,L-Glyceraldehyde]",activity at 100000 µM,[2],789%
same,"relative activity, times higher than that for L-sorbosone",[2]; substrate vs L-sorbosone,about 8 times
O.O.O.O.O=[N+]([O-])[O-].O=[N+]([O-])[O-].[Ca+2] [Ca(NO3)2.4H2 O],Relative activity (%),"[3]; metal 0.0387 mM, None = 100",294%
same,Relative activity (%),"[3]; metal 0.19 mM, None = 100",450%
[Ca+2].[Cl-].[Cl-] [CaCl2],Relative activity (%),"[3]; metal 0.0387 mM, None = 100",337%
[Ca+2] [Ca^2+],effect on the enzyme activity (in words),[3],Stimulator
O.O.O.O.O.O.[Cl][Cu][Cl] [CuCl2.6H2 O],Relative activity (%),"[3]; metal 0.0387 mM, None = 100",100%
same,Relative activity (%),"[3]; metal 0.19 mM, None = 100",50%
same,Relative activity (%),"[3]; metal 0.374 mM, None = 100",0%
O.O.O.O.O.O.O.O=S(=O)([O-])[O-].[Cu+2] [CuSO4.7H2 O],Relative activity (%),"[3]; metal 0.19 mM, None = 100",100%
same,Relative activity (%),"[3]; metal 0.374 mM, None = 100",61.9%
[Cu+2] [Cu^2+],effect on the enzyme activity (in words),[3],inhibited; also recorded: Inhibition
O=C(CO)[C@@H](O)[C@H](O)[C@H](O)CO [D-Fructose],activity at 100000 µM,[2],0%
O=C[C@H](O)[C@@H](O)[C@H](O)[C@H](O)CO [D-Glucose],"relative activity, times higher than that for L-sorbosone",[2],~2 times
same,activity at 100000 µM,[2],189%
O=CC(=O)[C@@H](O)[C@H](O)[C@H](O)CO [D-Glucosone],activity at 100000 µM,[2],77.8%
O=C[C@@H](O)[C@@H](O)[C@H](O)[C@H](O)CO [D-Mannose],activity at 100000 µM,[2],62.2%
O=C[C@H](O)[C@H](O)[C@H](O)CO [D-Ribose],activity at 100000 µM,[2],33.3%
OC[C@@H](O)[C@@H](O)[C@H](O)[C@@H](O)CO [D-Sorbitol],activity at 100000 µM,[2],0%
"O=C(O)CN(CCN(CC(=O)O)CC(=O)O)CC(=O)O [EDTA, ethylenediamine tetraacetic acid, reference compound]",effect on the enzyme activity (in words),[3],strongly inhibited; also recorded: Inhibition
same,activity at 194 µM,[3]; [4],3.8%
same,activity at 480 µM,[3]; [4],2.6%
same,activity at 980 µM,[3]; [4],1.6%
O.O=S(=O)([O-])[O-].O=S(=O)([O-])[O-].O=S(=O)([O-])[O-].[Fe+3].[Fe+3] [Fe2 (SO4)3.nH2 O],Relative activity (%),"[3]; metal 0.0387 mM, None = 100",100%
same,Relative activity (%),"[3]; metal 0.228 mM, None = 100",64.0%
same,Relative activity (%),"[3]; metal 0.374 mM, None = 100",44.9%
same,Relative activity (%),"[3]; metal 0.41 mM, None = 100",30.4%
[Fe+3] [Fe^3+],effect on the enzyme activity (in words),[3],inhibited
O=C(CO)[C@@H](O)[C@H](O)[C@@H](O)CO [L-Sorbose],activity at 100000 µM,[2],0%
O=CC(=O)[C@@H](O)[C@H](O)[C@@H](O)CO [L-Sorbosone],activity at 100000 µM,[2],100%
O.O.O.O.O.O.O.O=S(=O)([O-])[O-].[Mg+2] [MgSO4.7H2 O],Relative activity (%),"[3]; metal 0.19 mM, None = 100",79.3%
same,Relative activity (%),"[3]; metal 0.374 mM, None = 100",39.9%
[Mg+2] [Mg^2+],effect on the enzyme activity (in words),[3],inhibited
[Na+].[Na+].[O]=[Mo](=[O])([O-])[O-] [Mo^6+],effect on the enzyme activity (in words),[3],inhibited
"O=C(O)CI [Monoiodoacetate, reference compound]",activity at 950 µM,[3]; [4],93.7%
same,activity at 1870 µM,[3]; [4],87.3%
same,inhibition at 1870 µM,[3],13%
"CCN1C(=O)C=CC1=O [N-Ethylmaleimide, reference compound]",inhibition at 1870 µM,[3]; 1.87 mM,24%
same,activity at 950 µM,[3]; [5],94.1%
same,activity at 1870 µM,[3]; [6],76.5%
"O.O.O.O.O.O.O.O=[As]([O-])([O-])O.[Na+].[Na+] [Na2 HAsO4.7H2 O, reference compound]",Relative activity (%),"[3]; compound 0.950 mM, None = 100",100%
same,Relative activity (%),"[3]; compound 1.870 mM, None = 100",107.1%
O.O.[Na+].[Na+].[O]=[Mo](=[O])([O-])[O-] [Na2 MoO4.2H2 O],Relative activity (%),"[3]; metal 0.19 mM, None = 100",69.7%
same,Relative activity (%),"[3]; metal 0.374 mM, None = 100",42.1%
O.O.O.O.O.O.O=S(=O)([O-])[O-].[Ni+2] [NiSO4.6H2 O],Relative activity (%),"[3]; metal 0.375 mM, None = 100",17.6%
[Ni+2] [Ni^2+],effect on the enzyme activity (in words),[3],inhibited; also recorded: Inhibition
"O=C(O)c1cc(C(=O)O)c2c(n1)C(=O)C(=O)c1cc(C(=O)O)[nH]c1-2 [PQQ, pyrroloquinoline quinone, reference compound]",effect on the enzyme activity (in words),[3],Stimulator
same,activation at 10 µM,"[3]; 0.01 mM, read-out: stimulation of the activity",~50%
same,activity at 10 µM,"[3]; compound 0.01 mM, None = 100, read-out: Relative activity (%)",148%
"C=C[C@H]1C[N@@]2CC[C@H]1C[C@H]2[C@H](O)c1ccnc2ccc(OC)cc12 [Quinine, reference compound]",activity at 950 µM,[3]; [5],118%
same,activity at 1870 µM,[3]; [6],112%
"[F-].[Na+] [Sodium fluoride, reference compound]",Relative activity (%),[3],100% and 105.8%
"O=C(O)CF [Sodium fluoroacetate, reference compound]",activity at 950 µM,[3]; [5],118%
same,activity at 1870 µM,[3]; [6],127%
[Cl][Ti]([Cl])([Cl])[Cl] [TiCl4],Relative activity (%),"[3]; metal 0.19 mM, None = 100",100%
same,Relative activity (%),"[3]; metal 0.374 mM, None = 100",80%
[Ti+4] [Ti^4+],effect on the enzyme activity (in words),[3],inhibited
[Cl-].[Cl-].[Zn+2] [ZnCl2],Relative activity (%),"[3]; metal 0.19 mM, None = 100",36.1%
same,Relative activity (%),"[3]; metal 0.374 mM, None = 100",21.1%
O.O.O.O.O.O.O.O=S(=O)([O-])[O-].[Zn+2] [ZnSO4.7H2 O],Relative activity (%),"[3]; metal 0.374 mM, None = 100",32.6%
[Zn+2] [Zn^2+],effect on the enzyme activity (in words),[3],inhibited; also recorded: Inhibition
CC(C)O [iso-Propanol],activity at 100000 µM,[2],0%
CCCO [n-Propanol],activity at 100000 µM,[2],0%
NC(=O)c1ccc[n+]([C@@H]2O[C@H](COP(=O)([O-])OP(=O)(O)OC[C@H]3O[C@@H](n4cnc5c(N)ncnc54)[C@H](OP(=O)(O)O)[C@@H]3O)[C@@H](O)[C@H]2O)c1 [nicotine amide adenine dinucleotide phosphate],suitability as electron acceptor (in words),[1],not suitable
NC(=O)c1ccc[n+]([C@@H]2O[C@H](COP(=O)([O-])OP(=O)(O)OC[C@H]3O[C@@H](n4cnc5c(N)ncnc54)[C@H](O)[C@@H]3O)[C@@H](O)[C@H]2O)c1 [nicotine amide adenine dinucleotide],suitability as electron acceptor (in words),[1],not suitable
O=O [oxygen],suitability as electron acceptor (in words),[1],does not work; also recorded: not suitable
C[n+]1c2ccccc2nc2ccccc21 [phenazine methosulfate],suitability as electron acceptor (in words),[1],oxidizes L-sorbosone to 2-keto-L-gulonic acid in the presence of electron acceptors
cytochrome c,suitability as electron acceptor (in words),[1],oxidizes L-sorbosone to 2-keto-L-gulonic acid in the presence of electron acceptors
